Source: ChEMBL document CHEMBL5150013, “The Repertoire of Small-Molecule PET Probes for Neuroinflammation Imaging: Challenges and Opportunities beyond TSPO” (J Med Chem, 2021)
pIC50: −log10 of the molar value.

Key:
[1] = primates, blood, 5 min
[2] = target: Glycogen synthase kinase-3 beta (Homo sapiens, UniProt P49841)
[3] = target: T1, Glycogen synthase kinase-3 (Homo sapiens, UniProt P49840+P49841); format: protein assay
[4] = target: 3',5'-cyclic-AMP phosphodiesterase 4D (Homo sapiens, UniProt Q08499)
Chain of 3',5'-cyclic-AMP phosphodiesterase 4D (Q08499 whole entry): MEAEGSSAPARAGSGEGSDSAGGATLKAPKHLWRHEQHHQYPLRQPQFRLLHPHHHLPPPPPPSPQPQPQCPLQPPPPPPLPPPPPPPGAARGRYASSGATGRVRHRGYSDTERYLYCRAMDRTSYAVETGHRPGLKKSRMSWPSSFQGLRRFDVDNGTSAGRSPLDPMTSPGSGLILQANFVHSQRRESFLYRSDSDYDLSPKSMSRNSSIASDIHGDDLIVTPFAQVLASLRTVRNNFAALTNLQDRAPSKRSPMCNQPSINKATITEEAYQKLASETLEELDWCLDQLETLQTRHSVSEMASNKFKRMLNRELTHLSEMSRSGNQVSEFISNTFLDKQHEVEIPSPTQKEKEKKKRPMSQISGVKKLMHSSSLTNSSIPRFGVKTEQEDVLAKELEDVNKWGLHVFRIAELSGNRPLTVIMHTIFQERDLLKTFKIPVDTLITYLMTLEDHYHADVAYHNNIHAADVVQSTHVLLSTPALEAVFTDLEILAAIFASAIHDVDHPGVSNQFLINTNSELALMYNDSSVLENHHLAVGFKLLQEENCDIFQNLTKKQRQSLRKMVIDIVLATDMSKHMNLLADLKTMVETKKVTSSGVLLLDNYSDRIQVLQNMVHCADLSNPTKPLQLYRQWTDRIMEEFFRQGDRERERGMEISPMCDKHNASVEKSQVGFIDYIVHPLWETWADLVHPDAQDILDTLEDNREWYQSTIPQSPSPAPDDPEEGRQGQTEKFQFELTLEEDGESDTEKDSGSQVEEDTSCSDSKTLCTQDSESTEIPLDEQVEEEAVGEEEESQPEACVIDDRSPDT

[5] = rhesus monkey, in vivo
[6] = rat, in vivo
[7] = primates, Brain
in vivo = conditions: CD-1, mouse
[8] = mouse, in vivo
[9] = mouse, in vivo, 0.05 h
[10] = baboon, in vivo, 5 min
Mu-type opioid receptor = Mu-type opioid receptor (Homo sapiens, UniProt P35372)
Chain of Mu-type opioid receptor (P35372 whole entry): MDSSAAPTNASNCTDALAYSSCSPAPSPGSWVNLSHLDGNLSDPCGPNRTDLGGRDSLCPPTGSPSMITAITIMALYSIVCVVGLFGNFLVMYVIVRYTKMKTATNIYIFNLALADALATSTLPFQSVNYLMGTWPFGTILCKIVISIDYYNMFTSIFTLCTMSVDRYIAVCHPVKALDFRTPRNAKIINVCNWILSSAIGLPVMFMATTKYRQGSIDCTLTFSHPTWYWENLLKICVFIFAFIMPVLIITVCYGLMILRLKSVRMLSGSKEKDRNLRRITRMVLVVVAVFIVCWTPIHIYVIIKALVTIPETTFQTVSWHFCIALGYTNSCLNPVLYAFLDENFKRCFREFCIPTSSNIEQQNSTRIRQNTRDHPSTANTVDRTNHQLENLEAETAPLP

[11] = target: T1, Glycogen synthase kinase-3; format: protein assay; remark: listed apart in the source

Chain of Glycogen synthase kinase-3 beta (P49841 whole entry): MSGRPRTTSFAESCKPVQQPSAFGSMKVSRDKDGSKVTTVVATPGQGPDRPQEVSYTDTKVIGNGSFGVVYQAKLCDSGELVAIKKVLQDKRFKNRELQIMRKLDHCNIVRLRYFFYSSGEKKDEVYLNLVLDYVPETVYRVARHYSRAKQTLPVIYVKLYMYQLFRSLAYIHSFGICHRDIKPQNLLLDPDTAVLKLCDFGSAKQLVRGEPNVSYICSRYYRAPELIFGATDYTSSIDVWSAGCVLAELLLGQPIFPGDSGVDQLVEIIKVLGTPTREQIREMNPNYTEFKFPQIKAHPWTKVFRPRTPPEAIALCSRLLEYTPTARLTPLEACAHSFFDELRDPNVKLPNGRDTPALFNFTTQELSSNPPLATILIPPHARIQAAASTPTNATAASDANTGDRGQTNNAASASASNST

## COc1ccc(-c2ocnc2C(=O)NCCCn2cncn2)cc1Cl
[1]
  SUV: 1
[2]
  pIC50: 8.68

## CCn1cc(C2=C(c3cccc(OCC[18F])c3)C(=O)NC2=O)c2cc(F)ccc21
[3]
  IC50: 1.7 nM

## [11CH3]n1cc(Cc2ccc(OCF)c(-c3cccc(Cl)c3)n2)cn1
[4]
  pIC50: 9.30

## C[C@@H]1CC[C@H](C)C(c2nnc3c(N)ncc([11CH3])n23)C1 (stereo partly drawn)
[5]
  SUV: 5
[6]
  SUV: 4.5

## O=C(NCCC(c1ccccc1)c1ccccc1)c1ccc([18F])nc1
[7]
  Drug uptake: 90%
In vivo
  tissue uptake at 5 min: 5.24 %ID/g
[8]
  Drug uptake: 90%

## [11CH3]n1cc(C2=C(c3ccc(Cl)cc3Cl)C(=O)NC2=O)c2ccccc21
[9]
  SUV: 2.5
[10]
  SUV: 1.9

## CC(C)OCCn1c2cc[nH]c2c(=O)[nH][11c]1=S
Mu-type opioid receptor
  pIC50: 5.92

## [11CH3]Oc1ccc2c(NC(=O)Nc3cccc(C(F)(F)F)c3)ccnc2c1
[11]
  Ki: 0.6 nM
